# The supplement of paper PMC11451515
# Key:
# Test in all cases: AUC of viability dose-response curve (% viability x log10 dose units); higher = less sensitive
# Settings in all cases: 48 h
# NOMO1 = test system: NOMO1
# Summary of the method: (§1)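 Library compounds in DMSO were applied for 48 h at 37°C at 11 threefold doses (47 μM to 0.79 nM) to medium-adapted leukemia cells in 1536-well plates holding 500 or 1000 cells/well. Luminescence from CellTiter-Glo One was normalised plate by plate against DMSO and cell-free wells. Area under the curve came from trapezoidal integration of a log-logistic fit, after scaling curves that rose above full viability and discarding those that failed quality control. The fit had four parameters and used log10 doses.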
# P12-Ichikawa = test system: P12-Ichikawa
# Summary of the method: as §1
# SEM cells = test system: SEM cells
# Summary of the method: as §1
# [1] = RPMI 5 mM glucose + 10% dialyzed FBS
SMILES,AUC of viability dose-response curve (NOMO1; HPLM + 10% dialyzed FBS),AUC of viability dose-response curve (NOMO1; RPMI 5 mM glucose + 10% FBS),AUC of viability dose-response curve (NOMO1; [1]),AUC of viability dose-response curve (P12-Ichikawa; HPLM + 10% dialyzed FBS),AUC of viability dose-response curve (P12-Ichikawa; RPMI 5 mM glucose + 10% FBS),AUC of viability dose-response curve (P12-Ichikawa; [1]),AUC of viability dose-response curve (SEM cells; HPLM + 10% dialyzed FBS),AUC of viability dose-response curve (SEM cells; RPMI 5 mM glucose + 10% FBS),AUC of viability dose-response curve (SEM cells; [1])
OC(CN1CCN(c2cccc(Cl)c2)CC1)C(c1ccccc1)c1ccccc1 (stereo not drawn),265,324,341,238,318,307,319,252,257
CC(C)OC1=CC=C2C(=C1)O\C=C(/C2=O)C3=CC=CC=C3,447,435,471,467,465,465,461,460,442
CC(C)(O)c1cc2nc(-c3cnc(N)nc3)nc(N3CCOCC3)c2s1,343,402,334,406,361,363,–,–,–
c1ccc(-c2oc3ncnc(NC[C@@H]4CCCO4)c3c2-c2ccccc2)cc1,454,467,454,461,454,455,468,463,467
CNC(=O)CN1CCC(Oc2cc3c(Nc4cccc(Cl)c4F)ncnc3cc2OC)CC1,320,302,325,364,356,374,457,469,469
NC(=O)Nc1cc(-c2cccc(F)c2)sc1C(=O)N[C@H]1CCCNC1,314,335,324,345,325,330,188,196,169
O=c1[nH]c(=O)n(C2CCCO2)cc1F (stereo not drawn),468,455,447,466,467,470,448,467,469
CC(C)Oc1ccc(C(=O)N[C@H](CNC(=O)CN(C)C)Cc2ccc(-c3cn4cccc([C@H](C)O)c4n3)cc2)cc1Cl,354,331,344,394,348,369,363,346,357
COc1cc(/C=C/C(=O)O)ccc1O,463,452,438,452,434,441,411,412,460
Cc1cccc(/C=N/Nc2cc(N3CCOCC3)nc(OCCc3ccccn3)n2)c1,382,352,322,399,373,343,415,396,358
OCCn1cc(-c2cnc3nnn(Cc4ccc5ncccc5c4)c3n2)cn1,440,471,456,457,455,459,430,389,430
Nc1ncnc2c1c(-c1cccc(OCc3ccccc3)c1)cn2C1CC(CN2CCCC2)C1 (stereo not drawn),411,441,423,463,466,465,388,414,405
CN(C)CCN1C(=O)c2cccc3cc(N)cc(c23)C1=O,424,427,435,437,418,431,–,–,–
COC(=O)\C1=C\CCN(C)C1,473,448,466,446,470,468,473,473,477
CC(C)Cc1ccc(C(C)C(=O)O)cc1 (stereo not drawn),–,–,–,442,408,410,371,396,425
C[C@H]1COC/2=C1/C(=O)C(=O)C3=C4CCCC(C)(C)C4=CC=C23,447,469,448,468,466,473,434,363,400
C#CCN[C@@H]1CCc2ccccc21.CS(=O)(=O)O,436,426,459,463,448,434,445,441,438
NC(=O)NO,359,340,347,401,393,367,326,362,332
NC(=O)OCC(COC(N)=O)c1ccccc1,434,465,456,465,460,465,455,448,471
CCN1CCCC1CNC(=O)c1cc([S+](N)(=O)[O-])ccc1OC (stereo not drawn),467,470,455,476,467,469,453,460,470

SMILES,AUC of viability dose-response curve (NOMO1; HPLM + 10% dialyzed FBS),AUC of viability dose-response curve (NOMO1; RPMI 5 mM glucose + 10% FBS),AUC of viability dose-response curve (NOMO1; [1]),AUC of viability dose-response curve (P12-Ichikawa; HPLM + 10% dialyzed FBS),AUC of viability dose-response curve (P12-Ichikawa; RPMI 5 mM glucose + 10% FBS),AUC of viability dose-response curve (P12-Ichikawa; [1]),AUC of viability dose-response curve (SEM cells; HPLM + 10% dialyzed FBS),AUC of viability dose-response curve (SEM cells; RPMI 5 mM glucose + 10% FBS),AUC of viability dose-response curve (SEM cells; [1])
CCOC(=O)/C=C/[C@H](C[C@@H]1CCNC1=O)NC(=O)[C@@H](CC(=O)[C@@H](NC(=O)c1cc(C)on1)C(C)C)Cc1ccc(F)cc1,471,469,440,466,459,450,452,463,454
NC(=O)c1ncn([C@@H]2O[C@H](CO)[C@@H](O)[C@H]2O)c1O,465,468,460,464,463,464,473,474,457
C=CCc1ccc(O)c(-c2ccc(O)c(CC=C)c2)c1,419,388,382,251,331,319,377,308,345
OCCC#Cc1nc(-c2ccc(F)cc2)c(-c2ccncc2)n1CCCc1ccccc1,463,465,472,476,467,468,475,467,456
CC(NCCc1ccc(O)cc1)C(O)c1ccc(O)cc1 (stereo not drawn),459,446,451,465,469,460,412,452,413
COc1cc(C)c(Sc2cnc(NC(=O)c3ccc(CNC(C)C(C)C)cc3)s2)cc1C(=O)N1CCN(C(C)=O)CC1 (stereo not drawn),430,460,445,448,418,443,386,436,425
Cc1ncc([N+](=O)[O-])n1CC(C)O (stereo not drawn),467,465,459,467,462,463,–,–,–
C1CCN2C[C@H]3C[C@H](\C=C/4CCCN[C@@H]34)[C@H]2C1,462,447,452,456,457,457,465,449,457
N#C/N=C(\NCCCCCCOc1ccc(Cl)cc1)Nc1ccncc1,–,–,–,–,–,–,48.4,34.6,38
CCN(c1ccccc1)c1cc(NC)[n+](C)c(C)n1,456,471,468,469,457,470,464,466,475
Cc1nc(Nc2n[nH]c3c2CN(C(=O)N[C@H](CN(C)C)c2ccccc2)C3(C)C)c2sccc2n1,262,277,266,317,258,266,–,–,–
CN(C)C1=C(Br)C=C(C=C1)C\2NC3=C(\C4=C2C(=O)CC(C)(C)C4)C5=CC=CC=C5C=C3 (stereo not drawn),–,–,–,466,447,459,471,465,470
Nc1ncnc2c1nc(Cl)n2[C@@H]1O[C@H](CO)[C@@H](O)[C@H]1O,–,–,–,454,463,452,412,419,406
COC1=CC=C2CN(C)CC[C@@]34\C=C/[C@H](O)C[C@@H]3OC1=C24,437,468,451,449,456,454,–,–,–
O.O.CCN1CCN(C(=O)N[C@H](C(=O)N[C@H]2[C@@H]3SC\C(=C(/N3C2=O)C(O)=O)CSC4=NN=N[N]4C)C5=CC=C(O)C=C5)C(=O)C1=O,–,–,–,–,–,–,422,425,413
C[C@@]1(C(=O)Nc2ccc(F)nc2)CCCN1c1nc(Nc2cc(C3CC3)[nH]n2)c2cccn2n1,369,417,392,374,380,393,–,–,–
Nc1nc(Cl)nc2c1ncn2[C@@H]1O[C@H](CO)[C@@H](O)[C@@H]1F,–,–,–,83.1,75.7,115,68,55.4,55.4
N=C1N[C@H]2[C@H](CS[C@H]2CCCCC(=O)O)N1,456,473,443,464,464,470,–,–,–
CNC(=O)Nc1ccc(-c2nc(N3CC4CCC(C3)O4)c3cnn(C4CCC5(CC4)OCCO5)c3n2)cc1,359,367,338,389,324,336,–,–,–
